Earlier results as cited in US20240034722A1, “PRETARGETING IMAGING AGENTS” (Eli Lilly and Company, priority 2020, published 2024).

How the values were obtained:
[1] = wild type mice, dynamic PET, by 10 min post-injection; cited from earlier work
ASO-TCO conjugate = conditions: rats given ASO-TCO intrathecally, tracer i.v. 24 and 168 hours later, static PET-CT 75-90 minutes after tracer; cited from earlier work

O=C(Cc1ccc(-c2nncnn2)cc1)NCC[18F] [[^18F]537-Tz, 2-(4-(1,2,4,5-tetrazin-3-yl)phenyl)-N-(2-fluoroethyl)acetamide]
Brain uptake [1]: 1.7±0.9 % ID
Radiotracer uptake in brain and spine relative to the control group (ASO-TCO conjugate): Higher radiotracer uptake
